Results taken from US11267925B2, “Water-based polyurethane dispersions and their preparation” (Dow Global Technologies LLC, priority 2017, dated 2022).

Legend:
[1] = Vapor pressure versus temperature profiles and normal boiling points in ebulliometer (ASTM E1719); assay type: physicochemical
Method: (§1) The vapor pressures versus temperature profiles of neat PROGLYDE™ DMM dipropylene glycol dimethyl ether, neat N,N-DMPA, and of three different blends of dipropylene glycol dimethyl ether and N,N-DMPA containing 83 wt %, 55 wt %, and 35 wt % dipropylene glycol dimethyl ether respectively are measured in an ebulliometer in the 5-760 millimeters of mercury (mmHg) pressure range by ASTM E1719 to obtain Antoine constants and the normal boiling points of pure components and blends. Pseudo-azeotropes and actual minimum boiling azeotropes are indicated by a normal boiling point which is lower than the boiling point of either of the neat components. The solubility of DMPA in these blends is also evaluated at 25° C. at the DMPA:solvent blend ratio of 1:9. The composition of the blends is detailed in Table 1 below: […]

[2] = Solubility of DMPA in solvents and solvent blends (mixed on shaker, appearance observed); assay type: physicochemical; conditions: for affinity in terms of solubility toward DMPA: neat solvent, weight ratio solvent:DMPA 9:1, room temperature (23° C.), FIG. 2
Method: At room temperature (23° C.), 1 gram (g) of DMPA and 9 g solvent are added into a glass bottle and mixed on a shaker for 30 minutes. After shaking, the appearance of the mixture in each bottle is observed for solubility. The solvent is either neat dialkyl amide or a blend of dialkyl amide with PROGLYDE™ DMM dipropylene glycol dimethyl ether. Blends are prepared in three blend ratios: 2:1, 1:1, and 1:2 ether:dialkyl amide.
At room temperature (23° C.), 1 g DMPA and various weights of solvent are added into a glass bottle, then mixed for 30 minutes before checking the appearance.
as §1

Row | SMILES | normal boiling point [1] [°C] | affinity in terms of solubility toward DMPA [2] | solubility of DMPA in N,N-DMPA at different weight ratios ([2]; dialkyl amide to DMPA 3:1 to 8:1, 23° C., FIG. 4)
1 | COCC(C)OCC(C)OC (stereo not drawn) [dipropylene glycol dimethyl ether, reference compound] | 174.931 |  | 
2 | CCN(CC)C(C)=O [N,N-DEAC, N,N-diethylacetamide] |  | good affinity toward DMPA | 
3 | COCCC(=O)N(C)C [M3-N,N-DMPA, 3-methoxy-N,N-dimethyl propionamide] |  | good affinity toward DMPA | 
4 | CCC(=O)N(C)C [N,N-DMPA, N,N-dimethylpropionamide] | 175.186 | good affinity toward DMPA | can dissolve DMPA effectively
